The target in one experiment is PARP6S (Homo sapiens, UniProt Q2NL67). The experiment can be described thus: PARP panel: ADP-ribosylation of SRPK2 using 6-a-NAD+. The format is biochemical.
The target of the next experiment is T1, PARP10cat (Homo sapiens, UniProt Q53GL7).
T1 sequence (Q53GL7 806-1025 limits assumed): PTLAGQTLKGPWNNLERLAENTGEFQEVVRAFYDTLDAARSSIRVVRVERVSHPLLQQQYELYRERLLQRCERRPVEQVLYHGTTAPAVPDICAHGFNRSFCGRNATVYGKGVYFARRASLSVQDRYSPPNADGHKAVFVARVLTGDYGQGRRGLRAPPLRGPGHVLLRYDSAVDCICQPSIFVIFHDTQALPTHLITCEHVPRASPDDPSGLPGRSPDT
The experiment can be described thus: Inhibition of PARP10cat-mediated ADP-ribosylation of SRPK2 using NAD+ (100 μM). The format is biochemical.

Sequence of PARP6S (Q2NL67 1-518 isoform Q2NL67-2): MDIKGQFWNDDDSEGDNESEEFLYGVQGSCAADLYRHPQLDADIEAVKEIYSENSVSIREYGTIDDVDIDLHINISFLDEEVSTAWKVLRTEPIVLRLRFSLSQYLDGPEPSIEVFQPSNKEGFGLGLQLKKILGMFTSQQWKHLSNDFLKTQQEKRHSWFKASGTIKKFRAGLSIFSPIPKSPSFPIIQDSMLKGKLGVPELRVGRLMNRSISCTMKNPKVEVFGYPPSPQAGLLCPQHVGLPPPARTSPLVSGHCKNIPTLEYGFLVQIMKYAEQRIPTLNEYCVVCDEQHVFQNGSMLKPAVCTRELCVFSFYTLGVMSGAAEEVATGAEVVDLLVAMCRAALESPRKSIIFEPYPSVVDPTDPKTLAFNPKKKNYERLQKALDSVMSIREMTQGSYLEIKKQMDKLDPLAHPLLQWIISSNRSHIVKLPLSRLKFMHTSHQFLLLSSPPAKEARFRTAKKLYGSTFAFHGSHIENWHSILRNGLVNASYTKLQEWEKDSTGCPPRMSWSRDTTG

As a reminder, the IC50 is the concentration needed to halve the response being measured. `Cc1c(-c2ccnc(C(F)(F)F)c2)ccc2c1CCNC2=O` [Compound 22, 5-methyl-6-(2-(trifluoromethyl)pyridin-4-yl)-3,4-dihydroisoquinolin-1(2H)-one]: the concentration for half-maximal inhibition (IC50) against PARP6S (6-a-NAD+) is > 30 µM. The PARP/PARP10 on PARP6S (PARP6S over PARP10cat) is on record as >10. For the same compound, the “selectivity for PARP10 over PARP11” value on PARP10cat was 29 fold. In addition, on PARP10cat (12 vs 8, 14 vs 3, 20, 22 vs 16, 23, 24 vs 15), the “improvement in selectivity for PARP10 over PARP11 compared to parent compound” value is ~2 fold. Further, on PARP10cat (ADP-ribosylation of SRPK2, NAD+ 100 μM), the “PARP10cat pIC50 ± S.E.M.” value came to 5.74 ± 0.02. For the same compound, on PARP10cat (ratio of IC50 values, PARP11 over PARP10cat), the PARP11/PARP10 worked out at 29.
